Measurements published in paper PMC5041982, “Small-molecule inhibition of STAT3 in radioresistant head and neck squamous cell carcinoma” (Oncotarget, 2016).
Where “and” joins values, the source holds several entries; their conditions need not be identical. Equal entries are not always repeated.

Experiments:
STAT3/1 regulated genes = test: RNA-seq of UM-SCC-17B tumor xenografts; assay type: in vivo; details: UM-SCC-17B xenografts, nude mice
[1] = Tumor PK (tumor vs plasma level) in nude mice bearing xenograft tumors; assay type: in vivo; details: 10 mg/Kg IP, mouse, 1 hr following IP dose
Procedure: PK studies to assess tumor vs. plasma levels of C188-9 were performed in nude mice bearing xenograft tumors. Details regarding these studies are in the Supplemental Methods.
For the tumor accumulation study, 3x106, MDA- 5. Bharadwaj U, Eckols TK, Kolosov M, Kasembeli MM, MB 468 cells were sub-cutaneously injected on left flank Adam A, Torres D et al. Drug-repositioning screening of Nude (Athymic NCr-nu/nu) mice and allowed to grow identified piperlongumine as a direct STAT3 inhibitor with till 500 mm3 and then the mice were randomized into two potent activity against breast cancer. Oncogene 2014; 0.
The Control mice (n =2) were sacrificed after their tumor et al. Inhibition of 1-deoxy-D-xylulose-5-phosphate reached 500 mm3 and the mice in the treatment group reductoisomerase by lipophilic phosphonates: SAR, […]
was administered and mice were sacrificed an hour later. 7. Halling DB, Georgiou DK, Black DJ, Yang G, Fallon JL, Plasma and tumors were harvested as described before, Quiocho FA et al. Determinants in CaV1 channels that snap frozen and shipped to Apredica for analysis. regulate the Ca2+ sensitivity of bound calmodulin. J Biol […]
Plasma samples were processed with 3 volumes 8. Kim BK, Lee JW, Park PJ, Shin YS, Lee WY, Lee KA et of methanol containing internal standard. Samples were al. The multiplex bead array approach to identifying serum then centrifuged to remove precipitated protein, and the biomarkers associated with breast cancer. Breast Cancer supernatant was analyzed by LC/MS-MS. All plasma Res 2009; 11: R22. samples were compared to a calibration curve prepared 9. Kim JK, Xu Y, Xu X, Keene DR, Gurusiddappa S, Liang in mouse blank plasma. Tumor samples were first X et al. A Novel Binding Site in Collagen Type III for homogenized in 1 ml of PBS per gram of tumor tissue and Integrins {alpha}1{beta}1 and {alpha}2{beta}1. J Biol then processed in the same manner as the plasma samples. Chem 2005; 280: 32512-32520.
Tumor samples were quantified using a calibration curve 10. Li RW, Schroeder SG. Cytoskeleton remodeling and prepared in control tumor. alterations in smooth muscle contractility in the bovine Samples were analyzed by LC/MS/MS using an jejunum during nematode infection. Funct Integr Genomics Agilent 6410 mass spectrometer coupled with an Agilent 2012; 12: 35-44.
1200 HPLC and a CTC PAL chilled autosampler, all 11. Shao H, Xu X, Mastrangelo M-AA, Jing N, Cook RG, controlled by MassHunter software (Agilent). After Legge GB et al. Structural Requirements for Signal separation on a C18 reverse phase HPLC column (e.g. Transducer and Activator of Transcription 3 Binding to Zorbax Eclipse 2.1mmx50mm or Zorbax Poroshell Phosphotyrosine Ligands Containing the YXXQ Motif. J […]
acetonitrile-water gradient system, peaks were analyzed 12. […]

SMILES: COc1ccc(S(=O)(=O)Nc2cc(-c3c(O)ccc4ccccc34)c(O)c3ccccc23)cc1 [Compound C188-9]
- Fold Change, ADM (STAT3/1 regulated genes): 1.8
- Fold Change, AKAP12 (STAT3/1 regulated genes): 2.9
- Fold Change, ALDH3A1 (STAT3/1 regulated genes): 2.6
- Fold Change, ANPEP (STAT3/1 regulated genes): 3.7
- Fold Change, ATF3 (STAT3/1 regulated genes): 1.9
- Fold Change, BATF2 (STAT3/1 regulated genes): −2.1
- Fold Change, CALML3 (STAT3/1 regulated genes): −1.7
- Fold Change, CCL2 (STAT3/1 regulated genes): 5.1
- Fold Change, CCL20 (STAT3/1 regulated genes): 2.1
- Fold Change, CCNA1 (STAT3/1 regulated genes): −2.3
- Fold Change, CCND3 (STAT3/1 regulated genes): −1.6
- Fold Change, CLU (STAT3/1 regulated genes): −1.7
- Fold Change, CMPK2 (STAT3/1 regulated genes): −2.1
- Fold Change, COL5A1 (STAT3/1 regulated genes): 1.7
- Fold Change, COL16A1 (STAT3/1 regulated genes): 1.8
- Fold Change, CXCL2 (STAT3/1 regulated genes): 2.9
- Fold Change, CXCL3 (STAT3/1 regulated genes): 2.6
- Fold Change, CYP1B1 (STAT3/1 regulated genes): 2.0
- Fold Change, DDX58 (STAT3/1 regulated genes): −1.7
- Fold Change, DYNC1H1 (STAT3/1 regulated genes): 1.5
- Fold Change, EGR1 (STAT3/1 regulated genes): 2.0
- Fold Change, EPSTI1 (STAT3/1 regulated genes): −2.2
- Fold Change, EREG (STAT3/1 regulated genes): 1.8
- Fold Change, FOS (STAT3/1 regulated genes): 2.0
- Fold Change, FOSB (STAT3/1 regulated genes): 1.9
- Fold Change, GBP1 (STAT3/1 regulated genes): −1.7
- Fold Change, HERC5 (STAT3/1 regulated genes): −1.7
- Fold Change, HERC6 (STAT3/1 regulated genes): −1.6
- Fold Change, HK2 (STAT3/1 regulated genes): 1.6
- Fold Change, HSPG2 (STAT3/1 regulated genes): 1.5
- Fold Change, IER3 (STAT3/1 regulated genes): 2.0
- Fold Change, IFI6 (STAT3/1 regulated genes): −2.1
- Fold Change, IFI27 (STAT3/1 regulated genes): −1.7
- Fold Change, IFI35 (STAT3/1 regulated genes): −1.9
- Fold Change, IFI44 (STAT3/1 regulated genes): −1.7
- Fold Change, IFI44L (STAT3/1 regulated genes): −2.3
- Fold Change, IFIT1 (STAT3/1 regulated genes): −2.5
- Fold Change, IFIT2 (STAT3/1 regulated genes): −2.2
- Fold Change, IFIT3 (STAT3/1 regulated genes): −2.5
- Fold Change, IFIT5 (STAT3/1 regulated genes): −1.6
- Fold Change, IFITM1 (STAT3/1 regulated genes): −1.5
- Fold Change, IFITM3 (STAT3/1 regulated genes): −1.5
- Fold Change, IGFBP3 (STAT3/1 regulated genes): 3.3
- Fold Change, IRF7 (STAT3/1 regulated genes): −1.7
- Fold Change, ISG15 (STAT3/1 regulated genes): −2.3
- Fold Change, KRT15 (STAT3/1 regulated genes): −2.1
- Fold Change, LY6E (STAT3/1 regulated genes): −1.5
- Fold Change, MMP10 (STAT3/1 regulated genes): −1.7
- Fold Change, MX1 (STAT3/1 regulated genes): −1.9
- Fold Change, MX2 (STAT3/1 regulated genes): −1.8
- Fold Change, NAV1 (STAT3/1 regulated genes): 1.6
- Fold Change, NEDD9 (STAT3/1 regulated genes): 1.9
- Fold Change, NNMT (STAT3/1 regulated genes): −2.3
- Fold Change, NOTCH4 (STAT3/1 regulated genes): 1.8
- Fold Change, NPTX2 (STAT3/1 regulated genes): 6.5
- Fold Change, NR4A2 (STAT3/1 regulated genes): 1.8
- Fold Change, NRP2 (STAT3/1 regulated genes): 1.9
- Fold Change, OAS1 (STAT3/1 regulated genes): −2.1
- Fold Change, OAS2 (STAT3/1 regulated genes): −1.8
- Fold Change, OASL (STAT3/1 regulated genes): −2.6
- Fold Change, PCDH17 (STAT3/1 regulated genes): −3.7
- Fold Change, PDK1 (STAT3/1 regulated genes): 1.7
- Fold Change, PHLDA1 (STAT3/1 regulated genes): 1.8
- Fold Change, PLSCR1 (STAT3/1 regulated genes): −1.8
- Fold Change, PSMB9 (STAT3/1 regulated genes): −1.6
- Fold Change, PTGS2 (STAT3/1 regulated genes): 4.4
- Fold Change, SAMD9 (STAT3/1 regulated genes): −1.7
- Fold Change, SCARA3 (STAT3/1 regulated genes): −1.8
- Fold Change, SERPINB3 (STAT3/1 regulated genes): −1.6
- Fold Change, SERTAD2 (STAT3/1 regulated genes): 1.6
- Fold Change, SFRP1 (STAT3/1 regulated genes): −2.6
- Fold Change, SLC2A1 (STAT3/1 regulated genes): 1.7
- Fold Change, SLC2A3 (STAT3/1 regulated genes): 5.9
- Fold Change, SLC4A7 (STAT3/1 regulated genes): 1.8
- Fold Change, SLC7A11 (STAT3/1 regulated genes): 1.6
- Fold Change, SLPI (STAT3/1 regulated genes): −1.6
- Fold Change, SMAD9 (STAT3/1 regulated genes): 2.7
- Fold Change, SP110 (STAT3/1 regulated genes): −1.6
- Fold Change, SPOCK3 (STAT3/1 regulated genes): −5.1
- Fold Change, STC1 (STAT3/1 regulated genes): 1.8
- Fold Change, TGFBR3 (STAT3/1 regulated genes): 1.5
- Fold Change, THBS1 (STAT3/1 regulated genes): 2.2
- Fold Change, TNC (STAT3/1 regulated genes): 2.9
- Fold Change, TRIM22 (STAT3/1 regulated genes): −1.7
- Fold Change, TYMP (STAT3/1 regulated genes): −1.7
- Fold Change, UBE2L6 (STAT3/1 regulated genes): −1.5
- Fold Change, UPK1B (STAT3/1 regulated genes): −1.9
- Fold Change, USP18 (STAT3/1 regulated genes): −1.9
- Fold Change, VEGFA (STAT3/1 regulated genes): 2.0
- Fold Change, VLDLR (STAT3/1 regulated genes): 1.7
- Plasma level [1]: 1.9 mg/ml and 4.0 μM
- Tumor level [1]: 5.0 mg/ml and 10.4 μM
- Tumor: Plasma ratio [1]: 2.6
- Kp at 1 h ([1]; Nude (Athymic NCr-nu/nu), tumor/plasma, intraperitoneal, 10 mg/Kg, read-out: Tumor: Plasma ratio): ~3
